Results from PubChem BioAssay (NCI).
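Protocol summary: plate cells (96-well), add compound at 5 concentrations, incubate 48 h, interpolate endpoints linearly. TGI: total growth inhibition.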

Tests used:
Test in all cases: inhibition of tumour cell growth, NCI panel, 48 h
MDA-N = tested on: MDA-N
COLO 205 colon = tested on: COLO 205 colon
NCI-H23 lung = tested on: NCI-H23 lung
CAKI-1 renal = tested on: CAKI-1 renal
RXF 393 renal = tested on: RXF 393 renal
ACHN renal = tested on: ACHN renal
MALME-3M melanoma = tested on: MALME-3M melanoma
SF-539 CNS = tested on: SF-539 CNS
PC-3 prostate = tested on: PC-3 prostate
OVCAR-3 ovarian = tested on: OVCAR-3 ovarian
UO-31 renal = tested on: UO-31 renal
SF-268 CNS = tested on: SF-268 CNS
OVCAR-4 ovarian = tested on: OVCAR-4 ovarian
LOX IMVI melanoma = tested on: LOX IMVI melanoma
NCI/ADR-RES ovarian = tested on: NCI/ADR-RES ovarian
IGROV1 ovarian = tested on: IGROV1 ovarian
NCI-H460 lung = tested on: NCI-H460 lung
A498 renal = tested on: A498 renal
HS 578T breast = tested on: HS 578T breast
SK-MEL-2 melanoma = tested on: SK-MEL-2 melanoma
OVCAR-8 ovarian = tested on: OVCAR-8 ovarian
RPMI-8226 leukemia = tested on: RPMI-8226 leukemia
SK-MEL-28 melanoma = tested on: SK-MEL-28 melanoma
MOLT-4 leukemia = tested on: MOLT-4 leukemia
U251 CNS = tested on: U251 CNS
MCF7 breast = tested on: MCF7 breast
DU-145 prostate = tested on: DU-145 prostate
UACC-257 melanoma = tested on: UACC-257 melanoma
A549 NSCLC = tested on: A549 NSCLC
NCI-H522 lung = tested on: NCI-H522 lung
TK-10 renal = tested on: TK-10 renal
SNB-19 CNS = tested on: SNB-19 CNS
KM12 colon = tested on: KM12 colon
BT-549 breast = tested on: BT-549 breast
HCT-116 colon = tested on: HCT-116 colon
786-0 renal = tested on: 786-0 renal
CCRF-CEM leukemia = tested on: CCRF-CEM leukemia
EKVX NSCLC = tested on: EKVX NSCLC
SF-295 CNS = tested on: SF-295 CNS
M14 melanoma = tested on: M14 melanoma
UACC-62 melanoma = tested on: UACC-62 melanoma
HOP-62 NSCLC = tested on: HOP-62 NSCLC
HOP-92 NSCLC = tested on: HOP-92 NSCLC
T-47D breast = tested on: T-47D breast
SNB-75 CNS = tested on: SNB-75 CNS
K-562 leukemia = tested on: K-562 leukemia
SN12C renal = tested on: SN12C renal
SK-MEL-5 melanoma = tested on: SK-MEL-5 melanoma
HT29 colon = tested on: HT29 colon
SK-OV-3 ovarian = tested on: SK-OV-3 ovarian
MDA-MB-435 = tested on: MDA-MB-435
MDA-MB-231 breast = tested on: MDA-MB-231 breast
SW-620 colon = tested on: SW-620 colon
HCC-2998 colon = tested on: HCC-2998 colon
NCI-H226 lung = tested on: NCI-H226 lung
OVCAR-5 ovarian = tested on: OVCAR-5 ovarian
HCT-15 colon = tested on: HCT-15 colon
SR leukemia = tested on: SR leukemia
HL-60(TB) leukemia = tested on: HL-60(TB) leukemia

Measured: TGI

CC(C)(C)OC(=O)NCCCCC(N)NC(=O)c1ccccc1 (stereo not drawn)
not listed: SR leukemia | HL-60(TB) leukemia
> 100 µM: all other assays above

CCCc1[nH]c2ccccc2c1-c1c(CCC)[nH]c2ccccc12
> 63.7 µM: MDA-MB-435
26.8 µM: NCI-H23 lung
32.2 µM: HOP-62 NSCLC
28.3 µM: SF-268 CNS
37.1 µM: COLO 205 colon
32.4 µM: IGROV1 ovarian
23.4 µM: PC-3 prostate
39.7 µM: SNB-75 CNS
32.8 µM: SF-295 CNS
21.4 µM: OVCAR-3 ovarian
65.5 µM: SK-OV-3 ovarian
32.7 µM: MALME-3M melanoma
51.8 µM: NCI/ADR-RES ovarian
> 61.2 µM: KM12 colon
33.6 µM: OVCAR-5 ovarian
50.9 µM: TK-10 renal
> 75.4 µM: A549 NSCLC
35.6 µM: BT-549 breast
24.4 µM: MDA-N
11.2 µM: OVCAR-8 ovarian
34.2 µM: NCI-H522 lung
31.4 µM: 786-0 renal
29.9 µM: MCF7 breast
42.1 µM: HCC-2998 colon
39.1 µM: NCI-H226 lung
29.3 µM: SNB-19 CNS
35.7 µM: SK-MEL-2 melanoma
62.4 µM: HOP-92 NSCLC
27.9 µM: M14 melanoma
50.5 µM: HS 578T breast
37.6 µM: RXF 393 renal
21.6 µM: SK-MEL-28 melanoma
38.6 µM: MDA-MB-231 breast
23.7 µM: SK-MEL-5 melanoma | SW-620 colon
17.3 µM: LOX IMVI melanoma
31.7 µM: ACHN renal
35 µM: DU-145 prostate
22.2 µM: HT29 colon
34.8 µM: UACC-62 melanoma
15.2 µM: HCT-116 colon
21.9 µM: U251 CNS
43.9 µM: UACC-257 melanoma
34.7 µM: UO-31 renal
23.5 µM: HCT-15 colon
59.7 µM: NCI-H460 lung
38.5 µM: CAKI-1 renal
30.9 µM: EKVX NSCLC
23.2 µM: SN12C renal
36.1 µM: SF-539 CNS
> 68.2 µM: OVCAR-4 ovarian
not listed: T-47D breast | HL-60(TB) leukemia
> 100 µM: all other assays above

CCCn1c(=O)c(N2CCN(c3ccccc3)CC2)nc2sc3ccccc3c21
not listed: RXF 393 renal | RPMI-8226 leukemia | K-562 leukemia | HCC-2998 colon | NCI-H226 lung | SR leukemia
> 100 µM: all other assays above

N#C/C(C(=S)NCc1ccccc1)=C(/N)N1CCCC1
not listed: MCF7 breast | BT-549 breast | SNB-75 CNS
> 100 µM: all other assays above
